Experimental data taken from patent US12441768B2, “Compositions and methods for treating endometriosis” (EndoMet Biosciences, Inc., priority 2018, dated 2025).
Where a SMILES comes first, the peptide text is derived from it. The star is where a group is joined. Bn = c1ccc(C*)cc1

What was measured:
[1] = biological target: Wnt-responsive promoter (TCF/LEF); assay: Wnt-dependent luciferase reporter assay; format: cell-based, murine
Outline: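 EC50 (uM) derived from inhibition of luminescence in Wnt3a-stimulated murine 3T3 cells expressing luciferase under a TCF/LEF promoter, with peptides added across a concentration range and vehicle as control.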

[2] = biological target: T1, β-catenin (Homo sapiens, UniProt P35222); assay: KD50 measurement using competitive fluorescence polarization (FP) with labelled TCF4; format: binding; settings: fluorescence polarization, β-catenin; for Kd: read-out: β-Cat FP KD
T1 sequence (P35222 1-781): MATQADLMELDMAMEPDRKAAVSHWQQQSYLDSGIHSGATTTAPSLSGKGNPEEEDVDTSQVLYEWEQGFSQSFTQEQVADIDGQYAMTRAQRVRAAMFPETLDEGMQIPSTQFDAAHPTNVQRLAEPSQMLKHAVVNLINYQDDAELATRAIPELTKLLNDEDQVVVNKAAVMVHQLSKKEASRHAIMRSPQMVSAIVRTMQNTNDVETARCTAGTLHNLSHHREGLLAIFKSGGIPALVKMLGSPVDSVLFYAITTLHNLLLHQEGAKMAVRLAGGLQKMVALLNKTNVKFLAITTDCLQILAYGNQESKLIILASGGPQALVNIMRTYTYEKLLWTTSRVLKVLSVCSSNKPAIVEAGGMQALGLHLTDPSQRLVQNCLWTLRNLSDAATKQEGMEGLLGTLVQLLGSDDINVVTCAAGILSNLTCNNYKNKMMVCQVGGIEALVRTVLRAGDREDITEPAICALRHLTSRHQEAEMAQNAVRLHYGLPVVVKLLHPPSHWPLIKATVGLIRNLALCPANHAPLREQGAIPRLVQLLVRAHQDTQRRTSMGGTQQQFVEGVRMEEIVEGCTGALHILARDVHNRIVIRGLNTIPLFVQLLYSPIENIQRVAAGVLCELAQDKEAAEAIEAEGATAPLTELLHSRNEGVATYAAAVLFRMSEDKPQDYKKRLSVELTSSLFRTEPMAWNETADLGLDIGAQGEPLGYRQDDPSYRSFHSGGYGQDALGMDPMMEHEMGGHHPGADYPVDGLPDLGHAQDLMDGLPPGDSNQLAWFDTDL
Outline: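 Labelled TCF4 (5 nM) mixed with 100 nM β-catenin at room temperature; inhibitor added as serial dilutions from 10 nM to 30 uM. Polarization read at excitation 470 nm/emission 520 nm; binding displacement lowers polarization. Three independent runs.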

[3] = % Viability non-Wnt responsive cells

Structure (SMILES) | EC50 [1] | Kd [2] | β-Cat FP Hill slope [2] | viability [3]
CC[C@H](C)[C@H](NC(=O)[C@H](CC(C)C)NC(=O)[C@H](Cc1ccccc1)NC(=O)[C@H](Cc1c[nH]c2ccccc12)NC(=O)[C@H](CCCCN)NC(=O)[C@H](CCCNC(=N)N)NC(=O)[C@H](CO)NC(=O)[C@@H](N)CCSC)C(=O)N[C@@H](CO)C(=O)N[C@@H](Cc1ccccc1)C(=O)N[C@@H](Cc1c[nH]c2ccccc12)C(N)=O [compound 87] (H-MSRKWFLISFW-NH2) | > 30 µM | > 30 µM | – | 114%
CC[C@H](C)[C@H](NC(=O)[C@H](CC(C)C)NC(=O)[C@H](Cc1ccccc1)NC(=O)[C@H](Cc1c[nH]c2ccccc12)NC(=O)[C@H](Cc1c[nH]cn1)NC(=O)[C@H](CCCNC(=N)N)NC(=O)[C@H](CO)NC(=O)[C@@H](N)CCSC)C(=O)N[C@@H](CO)C(=O)N[C@@H](Cc1ccccc1)C(=O)N[C@@H](Cc1c[nH]c2ccccc12)C(N)=O [compound 88] (H-MSRHWFLISFW-NH2) | > 30 µM | > 30 µM | – | 105%
CC[C@H](C)[C@H](NC(=O)[C@H](CC(C)C)NC(=O)[C@H](Cc1ccccc1)NC(=O)[C@H](Cc1c[nH]c2ccccc12)NC(=O)[C@H](CCSC)NC(=O)[C@H](CCCNC(=N)N)NC(=O)[C@H](CO)NC(=O)[C@@H](N)Cc1c[nH]cn1)C(=O)N[C@@H](CO)C(=O)N[C@@H](Cc1ccccc1)C(=O)N[C@@H](Cc1c[nH]c2ccccc12)C(N)=O [compound 89] (H-HSRMWFLISFW-NH2) | > 30 µM | > 30 µM | – | 107%
CC[C@H](C)[C@H](NC(=O)[C@H](CC(C)C)NC(=O)[C@H](Cc1ccccc1)NC(=O)[C@H](Cc1c[nH]c2ccccc12)NC(=O)[C@H](CCCCN)NC(=O)[C@H](CCCNC(=N)N)NC(=O)[C@H](CO)NC(=O)[C@@H](N)Cc1c[nH]c2ccccc12)C(=O)N[C@@H](CO)C(=O)N[C@@H](Cc1ccccc1)C(=O)N[C@@H](Cc1c[nH]c2ccccc12)C(N)=O [compound 90] (H-WSRKWFLISFW-NH2) | > 30 µM | > 30 µM | – | 83.3%
CC[C@H](C)[C@H](NC(=O)[C@H](CC(C)C)NC(=O)[C@H](Cc1ccccc1)NC(=O)[C@H](Cc1c[nH]c2ccccc12)NC(=O)[C@H](Cc1c[nH]cn1)NC(=O)[C@H](CCCNC(=N)N)NC(=O)[C@H](CO)NC(=O)[C@@H](N)Cc1c[nH]c2ccccc12)C(=O)N[C@@H](CO)C(=O)N[C@@H](Cc1ccccc1)C(=O)N[C@@H](Cc1c[nH]c2ccccc12)C(N)=O [compound 91] (H-WSRHWFLISFW-NH2) | > 30 µM | > 30 µM | – | 84.6%
CC[C@H](C)[C@H](NC(=O)[C@H](CC(C)C)NC(=O)[C@H](Cc1ccccc1)NC(=O)[C@H](Cc1c[nH]c2ccccc12)NC(=O)[C@H](Cc1c[nH]c2ccccc12)NC(=O)[C@H](CCCNC(=N)N)NC(=O)[C@H](CO)NC(=O)[C@@H](N)Cc1c[nH]c2ccccc12)C(=O)N[C@@H](CO)C(=O)N[C@@H](Cc1ccccc1)C(=O)N[C@@H](Cc1c[nH]c2ccccc12)C(N)=O [compound 92] (H-WSRWWFLISFW-NH2) | 15 to 22.5 µM | > 30 µM | – | 87.8%
CC[C@H](C)[C@H](NC(=O)[C@H](CC(C)C)NC(=O)[C@H](Cc1ccccc1)NC(=O)[C@H](Cc1c[nH]c2ccccc12)NC(=O)[C@H](CCCCN)NC(=O)[C@H](CCCNC(=N)N)NC(=O)[C@H](CO)NC(=O)[C@@H](N)CCCCN)C(=O)N[C@@H](CO)C(=O)N[C@@H](Cc1ccccc1)C(=O)N[C@@H](Cc1c[nH]c2ccccc12)C(N)=O [compound 93] (H-KSRKWFLISFW-NH2) | > 30 µM | > 30 µM | – | 94%
CC[C@H](C)[C@H](NC(=O)[C@H](CC(C)C)NC(=O)[C@H](Cc1ccccc1)NC(=O)[C@H](Cc1c[nH]c2ccccc12)NC(=O)[C@H](Cc1c[nH]cn1)NC(=O)[C@H](CCCNC(=N)N)NC(=O)[C@H](CO)NC(=O)[C@@H](N)CCCCN)C(=O)N[C@@H](CO)C(=O)N[C@@H](Cc1ccccc1)C(=O)N[C@@H](Cc1c[nH]c2ccccc12)C(N)=O [compound 94] (H-KSRHWFLISFW-NH2) | > 30 µM | > 30 µM | – | 118%
CC[C@H](C)[C@H](NC(=O)[C@H](CC(C)C)NC(=O)[C@H](Cc1ccccc1)NC(=O)[C@H](Cc1c[nH]c2ccccc12)NC(=O)[C@H](Cc1c[nH]c2ccccc12)NC(=O)[C@H](CCCNC(=N)N)NC(=O)[C@H](CO)NC(=O)[C@@H](N)CCCCN)C(=O)N[C@@H](CO)C(=O)N[C@@H](Cc1ccccc1)C(=O)N[C@@H](Cc1c[nH]c2ccccc12)C(N)=O [compound 95] (H-KSRWWFLISFW-NH2) | > 30 µM | > 30 µM | – | 109%
CC[C@H](C)[C@H](NC(=O)[C@H](CC(C)C)NC(=O)[C@H](Cc1ccccc1)NC(=O)[C@H](Cc1c[nH]c2ccccc12)NC(=O)[C@@H](N)CCSC)C(=O)N[C@@H](CO)C(=O)N[C@@H](CO)C(=O)N[C@@H](Cc1c[nH]c2ccccc12)C(=O)O [compound 96] (H-MWFLISSW-OH) | 7.5 to 15 µM | 10 to 30 µM | 0.7 | 97.3%
CC[C@H](C)[C@H](NC(=O)[C@H](CC(C)C)NC(=O)[C@H](Cc1ccccc1)NC(=O)[C@@H](N)Cc1c[nH]c2ccccc12)C(=O)N[C@@H](CO)C(=O)N[C@@H](CO)C(=O)N[C@@H](Cc1c[nH]c2ccccc12)C(=O)O [compound 97] (H-WFLISSW-OH) | 22.5 to 30 µM | 1 to 10 µM | 2.45 | 102%
CC[C@H](C)[C@H](NC(=O)[C@H](CC(C)C)NC(=O)[C@H](Cc1ccccc1)NC(=O)[C@@H](N)Cc1c[nH]c2ccccc12)C(=O)N[C@@H](CO)C(=O)N[C@@H](Cc1ccccc1)C(=O)N[C@@H](Cc1c[nH]c2ccccc12)C(N)=O [compound 98] (H-WFLISFW-NH2) | > 30 µM | 1 to 10 µM | 1.02 | 96%

Now from value to molecule, other results behind:

EC50 [1] | Kd [2] | β-Cat FP Hill slope [2] | Structure (SMILES) | viability [3]
22.5 to 30 µM | 1 to 10 µM | 0.7 | CC[C@H](C)[C@H](NC(=O)[C@H](CC(C)C)NC(=O)[C@H](Cc1ccccc1)NC(=O)[C@H](Cc1c[nH]c2ccccc12)NC(=O)[C@H](CCSC)NC(=O)[C@H](CCCNC(=N)N)NC(=O)[C@H](CO)NC(=O)[C@@H](N)CCSC)C(=O)N[C@@H](CO)C(=O)N[C@@H](CO)C(=O)N[C@@H](Cc1c[nH]c2ccccc12)C(=O)O [compound 99] (H-MSRMWFLISSW-OH) | 97.3%
7.5 to 15 µM | 1 to 10 µM | 2.8 | CC[C@H](C)[C@H](NC(=O)[C@H](CC(C)C)NC(=O)[C@H](Cc1ccccc1)NC(=O)[C@@H](N)Cc1c[nH]c2ccccc12)C(=O)N[C@H](C(=O)N[C@H](C(=O)N[C@@H](Cc1c[nH]c2ccccc12)C(=O)O)[C@@H](C)O)[C@@H](C)O [compound 100] (H-WFLITTW-OH) | 102%
7.5 to 15 µM | 1 to 10 µM | 3 | CC[C@H](C)[C@H](NC(=O)[C@H](CC(C)C)NC(=O)[C@H](Cc1ccccc1)NC(=O)[C@@H](N)Cc1c[nH]c2ccccc12)C(=O)N[C@@H](CO)C(=O)N[C@@H](COCc1ccccc1)C(=O)N[C@@H](Cc1c[nH]c2ccccc12)C(=O)O [compound 101] (H-WFLISS(Bn)W-OH) | 106%
15 to 22.5 µM | < 0.4 µM | 0.7 | CC[C@H](C)[C@H](NC(=O)[C@H](CC(C)C)NC(=O)[C@H](Cc1ccccc1)NC(=O)[C@H](Cc1c[nH]c2ccccc12)NC)C(=O)N[C@@H](CO)C(=O)N[C@@H](Cc1ccccc1)C(=O)N[C@@H](Cc1c[nH]c2ccccc12)C(N)=O [compound 102] (HELM PEPTIDE1{[meW].F.L.I.S.F.W.[am]}$$$$V2.0) | 101%
15 to 22.5 µM | 1 to 10 µM | 1.71 | CC[C@H](C)[C@H](NC(=O)[C@H](CC(C)C)NC(=O)[C@H](Cc1ccccc1)NC(=O)[C@@H](N)Cc1c[nH]c2ccccc12)C(=O)N[C@@H](CO)C(=O)N[C@H](C(=O)N[C@@H](Cc1c[nH]c2ccccc12)C(=O)O)[C@@H](C)O [compound 103] (H-WFLISTW-OH) | 102%
7.5 to 15 µM | 1 to 10 µM | 3 | CCOC[C@H](NC(=O)[C@H](CO)NC(=O)[C@@H](NC(=O)[C@H](CC(C)C)NC(=O)[C@H](Cc1ccccc1)NC(=O)[C@@H](N)Cc1c[nH]c2ccccc12)[C@@H](C)CC)C(=O)N[C@@H](Cc1c[nH]c2ccccc12)C(=O)O [compound 104] (H-WFLISS(Et)W-OH) | 104%
